From publication PMC10672269, “Evaluation of Carbonic Anhydrase, Acetylcholinesterase, Butyrylcholinesterase, and α-Glycosidase Inhibition Effects and Antioxidant Activity of Baicalin Hydrate” (Life, 2023)
Several values for one entry are separate records, joined by “and”; a condition that tells them apart may be missing. Equal entries are not always repeated. Where two headings read alike, the source gives them in different places.

Experiments:
[1] = cited from earlier work; for DPPH radical scavenging IC50: previous reports; for median inhibitory concentration (IC50): DPPH tests in a different investigation
[2] = design: method as in PMID 31832335, PMID 16243424, PMID 36297576, doi:10.1016/j.fbio.2022.101557, PMID 37693735; settings: other existing studies; cited from earlier work
[3] = cited from earlier work
[4] = design: method as in PMID 31832335, PMID 36144638, PMID 37693735, PMID 21554120, PMID 36297576; settings: at the same concentration; cited from earlier work
DPPH radical scavenging = assay: DPPH radical scavenging
Experimental: The Blois technique was used to test the DPPH^• scavenging capacity of baicalin hydrate. Briefly, 0.25 mL of different concentrations of baicalin hydrate in ethanol (10–30 μg/mL) and 0.25 mL of DPPH radical solution (0.3 mM) in ethanol were combined with 1 mL ethanol in test tubes. The mixture was then incubated at 37 °C for 30 min. The DPPH radical scavenging activities of baicalin hydrate were measured at 517 nm.
(§1) The IC50 values were determined using plots of activity (%) versus baicalin hydrate. Ki values and other inhibition factors were determined using Lineweaver–Burk graphs.

[5] = Fe3+ reducing ability (potassium ferricyanide reduction); settings: at 30 μg/mL
Experimental: According to prior investigation, baicalin hydrate’s ability to reduce Fe^3+ was achieved. Also, according to previous works, the Fe^3+-reducing effect of baicalin hydrate was tested. Briefly, 0.75 mL of deionized water and different doses of baicalin hydrate (10–30 μg/mL) were combined with 1.25 mL sodium phosphate buffer (pH 6.6, 0.2 M) and 1.25 mL of K3[Fe(CN)6] (1%). After 30 min incubation at 30 °C, the reaction medium was acidified with 1 mL trichloroacetic acid (10%, TCA) and re-incubated in the dark for 30 min. Finally, 0.5 mL of FeCl3 (0.1%) was transferred to the solution. The absorbance values of baicalin hydrate and references were recorded at 700 nm. The increased absorbance of the reaction mixture reflects an increasing reduction ability.

ABTS radical scavenging = assay: ABTS radical scavenging
Experimental: ABTS^•+ scavenging capacity of baicalin hydrate was measured according to a different work and was detected at 734 nm. ABTS^•+ was produced by the reaction of 2 mM ABTS in water with 2.45 mM potassium persulfate (K2S2O8), incubated in the dark at room temperature for five hours. Before usage, the ABTS^•+ solution was diluted to obtain an absorbance of 0.750 ± 0.025 at 734 nm with phosphate buffer (0.1 M, pH 7.4). Then, 1 mL of ABTS^•+ solution was added to 3 mL of baicalin hydrate in ethanol at different concentrations (10–30 µg/mL).
as §1

[6] = Cu2+ reducing ability (cupric ions reducing); settings: at 30 μg/mL
Experimental: The technique of Apak et al. was utilized to assess the cupric ions (Cu^2+) reducing capacity of baicalin hydrate. After carrying out the required experimental procedures, the absorbances were detected at 450 nm using a spectrophotometer (Shimadzu, UV-1280, Kyoto, Japan). To do so, 0.2 mL CuCl2 solution (10 mM), 200 µL neocuproine solution (7.5 mM), and 200 µL CH3COONa buffer solution (1.0 M) were added to a test tube. The solution was mixed with different concentrations of baicalin hydrate (10–30 μg/mL). The total volume then reduced to 1.5 mL by adding distilled water and stored at room temperature. After 30 min incubation, the absorbances of the samples were measured at 450 nm. The increased absorbance of the reaction reflects increased reduction capacity.

DMPD radical scavenging = assay: DMPD radical scavenging
Experimental: Baicalin hydrate was evaluated for its capacity to remove DMPD^•+ using the Fogliano technique. For this purpose, 0.5 mL of FeCl3 (50 mM) and 1.5 mL of DMPD solution were added to the buffer solution (pH 5.3, 0.1 M). Then, this mixture was added to 1 mL of different concentrations (10–30 μg/mL) of baicalin hydrate. Then, the total volume was adjusted to 4 mL using deionized water. Finally, 1 mL of DMPD radicals were added, and their absorbances were recorded at 505 nm.
as §1

AChE = settings: cited from earlier work; for Ki: read-out: Ki towards AChE
[7] = design: method as in PMID 31832335, PMID 16243424, PMID 24980540, PMID 36297576, doi:10.1016/j.arabjc.2009.12.008; settings: at similar concentration; cited from earlier work
[8] = molecular target: T1, butyrylcholinesterase (BChE) (Equus caballus, UniProt P81908); assay: biochemical; design: species or system equine
T1 construct: BChE was purified from equine serum; from tissue; host or cells: equine serum

[9] = molecular target: T2, acetylcholinesterase (AChE) (Electrophorus electricus, UniProt O42275); assay: Acetylcholinesterase inhibition (Ellman); format: biochemical, electric eel (Electrophorus electricus)
T2 construct: AChE was obtained from electric eel (Electrophorus electricus); from tissue

α-glycosidase = assay: α-Glycosidase inhibition (p-NPG substrate); format: biochemical, Saccharomyces cerevisiae
Experimental: The inhibition effects of baicalin hydrate on α-glycosidase (from Saccharomyces cerevisiae) were assessed according to the procedure outlined by Tao et al.. p-Nitrophenyl-D-glucopyranoside (p-NPG) was used as a substrate for α-glycosidase. Briefly, 75 μL phosphate buffer (pH 7.4) was mixed with 5 μL of the sample and 20 μL α-glycosidase enzyme solution in a phosphate buffer (0.15 U/mL, pH 7.4). After preincubation, 50 μL of p-nitrophenyl-D-glycopyranoside (p-NPG) in a phosphate buffer (5 mM, pH 7.4) was transferred, and the solution was incubated at 37 °C. The absorbance of the samples was measured at 405 nm. The amount of enzyme that catalyzed […] of substrate per minute (pH 7.4) was one α-glycosidase unit.
as §1

hCA II isoenzyme = molecular target: T3, hCA II isoenzyme (Homo sapiens, UniProt P00918); assay: Human carbonic anhydrase II inhibition (esterase activity); format: biochemical
T3 construct: hCA II isoenzyme was purified from fresh human erythrocytes; from tissue
Experimental: hCA II isoenzyme was purified from fresh human erythrocytes. The erythrocytes were spun at 10,000× g for 30 min. The serum was then separated, and the pH was adjusted to 8.7 using solid Tris. Sepharose-4B-L-Tirozyne sulfanilamide affinity column chromatography was used to purify the CA II isoenzyme. […] Sodium acetate/NaClO4 (0.5 M, pH 5.6, 25 °C) was then used to elute the hCA II isozyme. The Bradford technique was used to measure the protein quantity throughout the purification process. Bovine serum albumin was employed as a reference protein. SDS-PAGE was used to monitor the purity of the hCA II isoform. Esterase activity was performed throughout hCA II’s purification and inhibition processes.
as §1

T2 sequence (O42275 24-633): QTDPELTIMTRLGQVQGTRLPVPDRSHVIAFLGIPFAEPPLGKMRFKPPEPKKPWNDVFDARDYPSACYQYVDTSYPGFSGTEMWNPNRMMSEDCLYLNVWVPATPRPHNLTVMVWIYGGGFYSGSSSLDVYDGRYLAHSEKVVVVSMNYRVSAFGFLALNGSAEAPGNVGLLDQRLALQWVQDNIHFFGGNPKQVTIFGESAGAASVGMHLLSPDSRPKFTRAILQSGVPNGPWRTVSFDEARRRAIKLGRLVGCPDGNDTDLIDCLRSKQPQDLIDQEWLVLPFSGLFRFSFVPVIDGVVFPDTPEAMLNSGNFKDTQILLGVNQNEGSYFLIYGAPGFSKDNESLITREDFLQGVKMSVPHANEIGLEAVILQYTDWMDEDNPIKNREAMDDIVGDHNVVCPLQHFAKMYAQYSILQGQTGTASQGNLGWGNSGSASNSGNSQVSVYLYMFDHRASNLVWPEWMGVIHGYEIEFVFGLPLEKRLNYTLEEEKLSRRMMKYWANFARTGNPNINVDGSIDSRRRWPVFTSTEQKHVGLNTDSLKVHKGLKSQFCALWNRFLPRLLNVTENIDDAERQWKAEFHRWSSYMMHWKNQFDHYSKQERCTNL
T1 sequence (P81908 whole entry): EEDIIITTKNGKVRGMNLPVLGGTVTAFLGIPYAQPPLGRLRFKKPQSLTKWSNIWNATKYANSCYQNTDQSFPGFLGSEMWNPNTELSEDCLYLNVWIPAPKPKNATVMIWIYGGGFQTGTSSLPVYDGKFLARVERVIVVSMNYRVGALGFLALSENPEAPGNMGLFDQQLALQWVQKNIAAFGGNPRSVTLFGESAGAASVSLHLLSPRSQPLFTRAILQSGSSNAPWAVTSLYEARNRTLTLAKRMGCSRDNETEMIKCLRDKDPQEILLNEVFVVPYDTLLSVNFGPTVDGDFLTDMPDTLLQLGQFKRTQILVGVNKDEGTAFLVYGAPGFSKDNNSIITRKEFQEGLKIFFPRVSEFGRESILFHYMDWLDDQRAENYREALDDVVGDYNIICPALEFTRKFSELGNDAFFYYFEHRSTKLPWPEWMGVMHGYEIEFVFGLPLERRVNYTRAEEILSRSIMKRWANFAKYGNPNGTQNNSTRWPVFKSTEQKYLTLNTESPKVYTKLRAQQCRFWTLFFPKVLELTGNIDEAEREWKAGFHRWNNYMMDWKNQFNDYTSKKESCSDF

C=CCc1ccc(O)c(OC)c1 [eugenol]
DPPH radical scavenging IC50 [1]: 16.06 µg/mL | DMPD•+ scavenging IC50 [2]: 10.04 µg/mL | ABTS•+ scavenging IC50 [3]: 7.84 µg/mL | Cu^2+ reduction absorbance [4]: 0.762

Cc1c(C)c2c(c(C)c1O)CCC(C)(C(=O)O)O2 (centres unmarked) [Trolox]
DPPH• scavenging IC50 (DPPH radical scavenging): 7.059 µg/mL | Fe^3+ reducing, absorbance λ (700 nm) [5]: 2.119 ± 0.001 and 2.119 | ABTS•+ scavenging IC50 (ABTS radical scavenging): 6.16 µg/mL | Cu^2+ reducing, absorbance λ (450 nm) [6]: 1.548 ± 0.024 and 1.548 | DMPD•+ scavenging IC50 (DMPD radical scavenging): 4.33 µg/mL

O=C(O)[C@H]1O[C@@H](Oc2cc3oc(-c4ccccc4)cc(=O)c3c(O)c2O)[C@H](O)[C@@H](O)[C@@H]1O [baicalin]
IC50 ([1]; read-out: DPPH radical IC50): 64900 nM | IC50 (AChE; a different study, read-out: 50% inhibition of AChE activity (IC50)): 124000 nM

O=C1c2c(O)cc(O)cc2OC(c2ccc(O)c(O)c2)C1O (centres unmarked) [taxifolin]
DPPH radical scavenging IC50 [1]: 77.00 µg/mL | DMPD•+ scavenging IC50 [2]: 173.25 µg/mL | ABTS•+ scavenging IC50 [3]: 0.83 µg/mL | Ki (AChE): 16.7 nM | Cu^2+ reduction absorbance [4]: 0.750

O=c1oc2cc(O)ccc2c2oc3cc(O)ccc3c12 [coumestrol]
DPPH radical scavenging IC50 [1]: 25.95 µg/mL | Fe^3+ reducing absorbance [7]: 0.739 | DMPD•+ scavenging IC50 [2]: 12.81 µg/mL | ABTS•+ scavenging IC50 [3]: 12.24 µg/mL | Ki (AChE): 21.4 nM | Cu^2+ reduction absorbance [4]: 0.780

Cc1c(C)c2c(c(C)c1O)CC[C@@](C)(CCC[C@H](C)CCC[C@H](C)CCCC(C)C)O2 [α-Tocopherol]
DPPH• scavenging IC50 (DPPH radical scavenging): 11.31 µg/mL | Fe^3+ reducing, absorbance λ (700 nm) [5]: 0.957 ± 0.018 and 0.957 | ABTS•+ scavenging IC50 (ABTS radical scavenging): 8.37 µg/mL | Cu^2+ reducing, absorbance λ (450 nm) [6]: 0.816 ± 0.041 and 0.816 | DMPD•+ scavenging IC50 (DMPD radical scavenging): 7.11 µg/mL

COc1ccc2c(c1O)-c1c(O)c(OC)cc3c1[C@H](C2)[N+](C)(C)CC3 [magnofluorine]
DPPH radical scavenging IC50 [1]: 10.58 µg/mL | Fe^3+ reducing absorbance [7]: 0.967 | DMPD•+ scavenging IC50 [2]: 15.16 µg/mL | ABTS•+ scavenging IC50 [3]: 27.61 µg/mL | Cu^2+ reduction absorbance [4]: 0.468

L-Adrenaline [reference compound]
DPPH radical scavenging IC50 [1]: 30.6 µg/mL | DMPD•+ scavenging IC50 [2]: 15.6 µg/mL | ABTS•+ scavenging IC50 [3]: 6.93 µg/mL

COc1ccc(O)c(C(C)(C)C)c1 [BHA, butylated hydroxyanisole]
DPPH• scavenging IC50 (DPPH radical scavenging): 10.10 µg/mL | Fe^3+ reducing, absorbance λ (700 nm) [5]: 2.347 ± 0.046 and 2.347 | ABTS•+ scavenging IC50 (ABTS radical scavenging): 5.07 µg/mL | Cu^2+ reducing, absorbance λ (450 nm) [6]: 2.216 ± 0.059 and 2.216 | DMPD•+ scavenging IC50 (DMPD radical scavenging): 11.99 µg/mL

O=C(O)[C@H]1O[C@@H](Oc2cc3oc(-c4ccccc4)cc(=O)c3c(O)c2O)[C@H](O)[C@@H](O)[C@@H]1O [Baicalin hydrate, baicalin hydrate]
IC50 [8]: 12.3 nM | Ki ([8]; n: 3, Lineweaver–Burk): 3.5 ± 0.68 nM | median inhibitory concentration (IC50) [1]: 17.0 µg/mL | DPPH• scavenging IC50 (DPPH radical scavenging): 13.40 µg/mL | Fe^3+ reducing, absorbance λ (700 nm) [5]: 1.249 | Fe^3+ reducing, absorbance λ (700 nm) ([5]; listed as baicalin hydrate): 1.249 ± 0.014 | ABTS•+ scavenging IC50 (ABTS radical scavenging): 38.37 µg/mL | IC50 [9]: 14.7 nM | Ki [9]: 10 ± 2.86 nM | Selectivity index (Ki for AChE/Ki BChE) [9]: 2.86 | Cu^2+ reducing, absorbance λ (450 nm) [6]: 0.344 | Cu^2+ reducing, absorbance λ (450 nm) ([6]; listed as baicalin hydrate): 0.344 ± 0.033 | IC50 (α-glycosidase): 24.6 nM | Ki (α-glycosidase; n: 3, Lineweaver–Burk, read-out: Ki α-Gly): 27 ± 9.91 nM | DMPD•+ scavenging IC50 (DMPD radical scavenging): 90.91 µg/mL | IC50 (hCA II isoenzyme): 31.1 nM | Ki (hCA II isoenzyme): 19.3 ± 1.79 nM

tannic acid
Fe^3+ reducing absorbance [7]: 2.428

O=C1O[C@H]([C@@H](O)CO)C(O)=C1O [ascorbic acid, reference compound]
median inhibitory concentration (IC50) [1]: 19.6 µg/mL

Cc1cc(C(C)(C)C)c(O)c(C(C)(C)C)c1 [BHT, butylated hydroxytoluene]
median inhibitory concentration (IC50) [1]: 21.7 µg/mL | DPPH• scavenging IC50 (DPPH radical scavenging): 25.95 µg/mL | Fe^3+ reducing, absorbance λ (700 nm) [5]: 0.952 ± 0.023 and 0.952 | ABTS•+ scavenging IC50 (ABTS radical scavenging): 6.99 µg/mL | Cu^2+ reducing, absorbance λ (450 nm) [6]: 2.044 ± 0.041 and 2.044 | DMPD•+ scavenging IC50 (DMPD radical scavenging): 8.72 µg/mL

CCCCCc1cc(O)cc(O)c1 [olivetol]
DPPH radical scavenging IC50 [1]: 17.77 µg/mL | DMPD•+ scavenging IC50 [2]: 19.25 µg/mL | ABTS•+ scavenging IC50 [3]: 1.94 µg/mL | Cu^2+ reduction absorbance [4]: 1.314

O=C(/C=C/c1ccc(O)c(O)c1)OCCc1ccccc1 [CAPE, caffeic acid phenethyl ester]
DPPH radical scavenging IC50 [1]: 3.30 µg/mL | Fe^3+ reducing absorbance [7]: 2.509 | DMPD•+ scavenging IC50 [2]: 26.70 µg/mL | ABTS•+ scavenging IC50 [3]: 9.80 µg/mL

CC(=O)c1c(O)c(C)c(O)c2c1OC1=CC(=O)C(C(C)=O)C(=O)C12C (centres unmarked) [usnic acid]
DPPH radical scavenging IC50 [1]: 49.50 µg/mL | Fe^3+ reducing absorbance [7]: 0.278 | DMPD•+ scavenging IC50 [2]: 33.00 µg/mL | ABTS•+ scavenging IC50 [3]: 10.4 µg/mL | Cu^2+ reduction absorbance [4]: 0.277

O=c1[nH]c(=O)c2[nH]c(=O)[nH]c2[nH]1 [uric acid]
Fe^3+ reducing absorbance [7]: 0.432

O=C(O)/C=C/c1ccc(O)c(O)c1 [caffeic acid]
Fe^3+ reducing absorbance [7]: 2.769

O=c1c(O)c(-c2ccc(O[C@@H]3O[C@H](CO)[C@@H](O)[C@H](O)[C@H]3O)c(O)c2)oc2cc(O)cc(O)c12 [spiraeoside]
DPPH radical scavenging IC50 [1]: 28.51 µg/mL | Fe^3+ reducing absorbance [7]: 1.012 | DMPD•+ scavenging IC50 [2]: 8.15 µg/mL | ABTS•+ scavenging IC50 [3]: 7.48 µg/mL | Ki (AChE): 3.4 nM | Cu^2+ reduction absorbance [4]: 0.519
